According to patent publication US20140309296A1, “BUDIODARONE FORMULATIONS” (Armetheon, Inc., priority 2013, published 2014):
Read-outs that look alike come from different tables or passages of the source.

What was measured:
[1] = Lower-limit ratio for soluble benzyl alcohol and budiodarone compositions in water (Example 6); assay type: physicochemical; settings: 25, 50 and 100 mg/ml, introduced ratios 0.8 to 4.9, 24 hours in the dark, room temperature
Method: Three series of 20-ml screw-cap glass vials were prepared as described in Tables 5 to 7. Budiodarone tartrate was added to the empty vials, followed by water, and then benzyl alcohol was added. The vials were capped and the mixtures were vortexed for three times 10 seconds. The vials were then left in the dark for 24 hours and were then analyzed as described above using HPLC Conditions 2 and 3.
In FIG. 4, the approximately 5/1 lower-limit molar ratio is constant over a wide range of budiodarone concentrations, at least between budiodarone concentrations of 25 mg/ml and 100 mg/ml. The resulting ratios in solution, following 24-hour in the dark, were calculated from HPLC analysis data and were plotted versus the actual ratios introduced into the vials. Each point represents the mean findings of the three concentrations (25 mg/ml, 50 mg/ml, and 100 mg/ml)+/−standard deviation. […] This association takes place even when the original ratio introduced into the vial is as low as 0.8/1. Presumably the 5/1 ratio is an optimum molar ratio allowing for the optimum balance of repulsive ionic forces and attractive van der Waals forces between water molecules and the budiodarone/benzyl alcohol complex. […]

[2] = Pre-formed 3/1 benzyl alcohol/budiodarone composition, solubility in water (Example 7); assay type: physicochemical; settings: 25 mg/ml budiodarone, 0.92% (v/v) benzyl alcohol, pre-mixed before water is added
Method: A clear solution containing 25 mg/ml of budiodarone and 0.92% (v/v) of benzyl alcohol (molar ratio of 3/1) was prepared. In this example, the association between budiodarone and benzyl alcohol was pre-formed before water is added.
Methanol (5 ml), budiodarone tartrate (250 mg, 0.293 mmole), and benzyl alcohol (92 μl, 0.880 mmole) were mixed. In this mixture, the molar ratio of benzyl alcohol to budiodarone was 3/1. Methanol was removed at 36° C. under partial vacuum (30 mm Hg) to form a clear oily residue. The residue was left at room temperature under high vacuum (1 mmHg) for 1 hour to remove traces of methanol. Water (10 ml), is then added, and the sample is vortexed for 3×10 sec.
In order to confirm the solubility of budiodarone and the molar ratio between benzyl alcohol and budiodarone, the sample was analyzed by HPLC. The analysis was performed immediately after preparation of the solution. An aliquot of the solution was centrifuged as described above in order to remove insoluble material.

[3] = Budiodarone concentration attainable in hyperconcentrated solutions (Examples 16-18); assay type: physicochemical
Method: The benzyl alcohol/budiodarone tartrate solution is viscous and therefore direct measurement of the budiodarone concentration is difficult. A better way to measure budiodarone concentration in the solution of benzyl alcohol and budiodarone oil or in a hyperconcentrated solution is by using an indirect method. In this example, the volume of the benzyl alcohol/budiodarone mixture was measured, which in turn allowed for the calculation of an accurate budiodarone concentration.
In each of five vials of accurately known volume, budiodarone tartrate (250 mg) and benzyl alcohol (91 μl) were mixed in order to make a 3/1 mixture (mol/mol). Then the solution was mixed thoroughly in order to make a clear solution. This was aided with the help of warming to 50° C. for 3 minutes in order to reduce the viscosity of the mixture. The weight of the vial containing the 3:1 mixture of benzyl alcohol/budiodarone was then recorded. Vial number 1 was filled with silicon oil of density d=0.964 and weighed again. The difference in weight provided the weight of the silicon oil added. This, divided by the density of the silicon oil provided the volume of silicon oil necessary to fill the vial. The difference with the known volume of the vial represents the volume of the benzyl alcohol/budiodarone mixture. To Vial numbers 2, 3, 4, and 5 was added 50, 100, 200, and 400 μl of water, respectively. The contents of the vials were then thoroughly mixed in order to get hyperconcentrated solutions of different volumes and different budiodarone concentrations. The volumes of these hyperconcentrations using silicon oil were measured as described above.
The same experiment as Example 16 was replicated, using mixtures of 5/1 ratio (250 mg of budiodarone tartrate and 152 μl of benzyl alcohol) and various volumes of water added. Using the same procedure as Example 16, a maximum calculated budiodarone concentration of 737 mg/ml and a maximum benzyl alcohol concentration of 45% (v/v) were found.
Similarly, the experiment in Example 16 was replicated, using a 1/1 mixture (250 mg of budiodarone tartrate and 30 μl of benzyl alcohol). A maximum calculated budiodarone concentration of 1,136 mg/ml and a maximum benzyl alcohol concentration of 13.6% (v/v) were found.

[4] = test system: sodium, potassium, and calcium ion channels; settings: animals; cited from earlier work
[5] = test system: subjects with paroxysmal atrial fibrillation who had implanted pacemakers; settings: cited from earlier work
[6] = cited from earlier work
[7] = cited from earlier work; remark: listed apart in the source
[8] = target: cytochrome P450 2C9 (CYP2C9) (Homo sapiens, UniProt P11712); settings: cited from earlier work
Chain of cytochrome P450 2C9 (CYP2C9) (P11712 whole entry): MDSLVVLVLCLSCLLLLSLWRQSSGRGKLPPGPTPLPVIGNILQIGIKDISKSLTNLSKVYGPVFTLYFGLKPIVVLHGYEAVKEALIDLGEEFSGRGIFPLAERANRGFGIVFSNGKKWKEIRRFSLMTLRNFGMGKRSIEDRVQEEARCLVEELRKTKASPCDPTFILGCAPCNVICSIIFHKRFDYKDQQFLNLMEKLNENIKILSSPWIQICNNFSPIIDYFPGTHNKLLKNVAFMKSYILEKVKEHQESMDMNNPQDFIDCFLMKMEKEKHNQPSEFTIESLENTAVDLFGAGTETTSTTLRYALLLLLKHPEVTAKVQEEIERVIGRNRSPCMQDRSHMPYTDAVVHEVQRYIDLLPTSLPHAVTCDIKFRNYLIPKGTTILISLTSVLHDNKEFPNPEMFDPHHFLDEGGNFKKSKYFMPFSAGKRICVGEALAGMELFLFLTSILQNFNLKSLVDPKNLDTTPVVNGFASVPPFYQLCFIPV

CC[C@H](C)OC(=O)Cc1oc2ccccc2c1C(=O)c1cc(I)c(OCCN(CC)CC)c(I)c1 [budiodarone, (1S)-1-methylpropyl 2-(3-{4-[2-(diethylamino)ethoxy]-3,5-diiodobenzoyl}benzofuran-2-yl)acetate]
lower-limit molar ratio of benzyl alcohol to budiodarone in solution [1]: approximately 5/1 | solubility in water of pre-formed 3/1 molar ratio [2]: water soluble | maximum calculated budiodarone concentration ([3]; 1/1 mixture): 1,136 mg/ml | calculated maximum budiodarone concentration ([3]; 3:1 molar ratio of benzyl alcohol/budiodarone): 890 mg/mL | maximum calculated budiodarone concentration ([3]; 5/1 ratio): 737 mg/mL | atrial effects [4]: increased St-A and A-H intervals | inhibition of sodium, potassium, and calcium ion channels [4]: inhibition comparable with amiodarone | left and right atrial refractoriness [4]: increased left and right atrial refractoriness comparable with amiodarone | ventricular effects [4]: increased MAPD90 and QT-interval | mean AFB (SD) ([5]; 200 mg bid): 5.2 ± 4.2% | mean AFB (SD) ([5]; 400 mg bid): 5.2+5.2% | mean AFB (SD) ([5]; 600 mg bid): 2.8+3.4% | mean AFB (SD) ([5]; 800 mg bid): 1.5 ± 0.5% | decrease in AFB ([5]; at all doses (200 to 800 mg bid)): at least 70% | Mean episode duration (SD) ([5]; p2 (200 mg bid)): 1.7+2.5 h | relative reduction (RR) in AFB from baseline ([5]; p2 (200 mg bid)): 71.2 ± 31.3% | Mean episode duration (SD) ([5]; p3 (400 mg bid)): 0.6+0.7 h | relative reduction (RR) in AFB from baseline ([5]; p3 (400 mg bid)): 71.7 ± 20.6% | Mean episode duration (SD) ([5]; p4 (600 mg bid)): 0.1+0.2 h | relative reduction (RR) in AFB from baseline ([5]; p4 (600 mg bid)): 79.9 ± 26.4% | Mean episode duration (SD) ([5]; p5 (800 mg bid)): 0.5+0.7 h | relative reduction (RR) in AFB from baseline ([5]; p5 (800 mg bid)): 86.8 ± 9.8% | number of AF episodes ([5]; treatment periods and washout): increased initially | Mean episode duration (SD) ([5]; washout): 2.4+3.0 h | mean AFB (SD) ([5]; washout): 11.7+14.0% | Mean trough level ([6]; 200 mg bid oral): 2.4 ± 0.9 ng/mL | Mean trough level ([6]; 400 mg bid oral): 5.2 ± 1.7 ng/mL | Mean trough level ([6]; 600 mg bid oral): 13.1 ± 5.6 ng/mL | Mean trough level ([6]; 800 mg bid oral): 19.8 ± 17.9 ng/mL | trough level ([6]; washout): 0.3+0.4 ng/mL | PR interval, reduction from baseline ([7]; 200 mg bid): 16.6+23.9% | PR interval, reduction from baseline ([7]; 400 mg bid): 11.4+22.6% | PR interval, reduction from baseline ([7]; 600 mg bid): 27.0+32.1% | PR interval, reduction from baseline ([7]; 800 mg bid): 35.1 ± 30.9% | proarrhythmia, clinical hypothyroidism, or hyperthyroidism ([7]; 200 to 800 mg bid): no cases | serious AEs ([7]; 200 to 800 mg bid): no serious AEs related to study drug | tolerability ([7]; 200 to 800 mg bid): generally well tolerated | changes in HR, QRS, QT, or QTc ([7]; between baseline and dosing or washout): no significant changes | thyroid-stimulating hormone ([7]; three patients, outside the normal range): dose-responsive increases | PR interval, reduction from baseline ([7]; washout): 30.7 ± 24.3% | inhibition of CYP2C9 [8]: inhibitor
